The values below come from PMC8708600, “Depth of the Steroid Core Location Determines the Mode of Na,K-ATPase Inhibition by Cardiotonic Steroids” (International Journal of Molecular Sciences, 2021).

Molecules are shown by their SMILES. Several values for one entry are separate records, joined by “and”; a condition that tells them apart may be missing. Identical values can stand only once. Entries after “also recorded” stand apart in the source; their conditions may differ. Like-named read-outs stand apart in the source and are kept apart here.

In one experiment the test system is NKA from pig kidneys. Conditions: read-out: IC50 measured for the enzyme from pig kidneys; cited from earlier work.
The target in the next experiment is NKA in E2P-conformation. Details: method as in PMID 33318128. To be noted: read-out: Kd for binding to E2P-conformation; cited from earlier work.
For experiment [1], the target named is T1, α1S-Na,K-ATPase in E2P-conformation (Sus scrofa, UniProt P05024).
T1 construct: In contrast to α1S-NKA from pig kidneys; from tissue; host or cells: pig kidney
The experiment in a line: biochemical. In kind it is binding, pig. On the procedure:
(§1) The thermodynamic parameters of CTSs’ binding to the pig and rat NKA were measured using the MicroCal iTC200 instrument (MicroCal, Northampton, MA, USA), as described earlier. α1S-NKA (pig) was transferred into E2P-conformation in the following way: enzyme preparations (5 mg) were suspended in 3 mL of buffer 10 mM imidazole, 3 mM Tris/Pi (pH 7.4), 1 mM EDTA, 0.1 mM DTT and 3 mM MgCl2 (E2P-conformation). DTT was added to the buffer immediately before the experiment. Suspensions of enzymes were centrifuged at 138,000 g for 90 min, and the pellets obtained were suspended in the buffer. α1R-NKA from rat kidneys was transferred into the buffer by dialysis.
(§2) Experiments were carried out at 37 °C. CTSs were diluted by a buffer that was used for enzyme suspension. Aliquots (2.5 μL) of ligands were injected into a 0.2 mL cell containing the protein solution to achieve a complete binding isotherm. The protein concentration on the cell ranged from 10 to 20 μM, and the ligand concentration in the syringe ranged from 50 to 200 μM. When we used digoxin or marinobufagenin, stock solutions were prepared using 100% DMSO, and then stock solutions were diluted to needed concentrations by the corresponding buffer; after that, aliquots were added to the cell. The medium with a protein of interest contained DMSO in the same concentration.
(§3) The resulting titration curves were fitted using the MicroCal Origin software, assuming one set of binding sites. Affinity constants (Ka) and enthalpy variations (ΔH) were determined, and the Gibbs energy (ΔG) and entropy variations (ΔS) were calculated from the equation:ΔG = −RTlnKa = ΔH – TΔS.

The target of experiment [2] is T2, α1S-Na,K-ATPase from pig kidneys (Sus scrofa, UniProt P05024).
T2 construct: In contrast to α1S-NKA from pig kidneys; from tissue; host or cells: pig kidney
As to the kind of experiment: Hydrolytic Na,K-ATPase activity (enzyme coupled assay), CTS in incubation medium. In kind it is biochemical. On the procedure: (§4) NKA activity was estimated as ATP cleavage using the enzyme coupled assay method. Incubation medium (2 mL) contained 130 mM NaCl, 20 mM KCl, 4 mM MgCl2, 3 mM ATP, […] (pH 7.4), 1 mM phosphoenolpyruvate, 0.2 mM NADH, 0.18 MM; NADH and pyruvate kinase (600–1000 units/mL)/lactate dehydrogenase (900–1400 units/mL). […] Incubation was carried out at 37 °C, and the concentration of Na,K-ATPase in the sample was 0.4–0.6 μg/mL. […] To determine IC50, 2 μg NKA was preincubated with CTSs in the incubation medium for 10 min, and after that, the reaction was started by the addition of ATP.
(§5) The plots describing the dependence of the NKA hydrolytic activity on CTSs concentration in the incubation medium were made using the Origin 8.1 program (OriginLab Corp., Northampton, MA, USA). They were fitted by hyperbola. The dependence of the Na,K-ATPase hydrolytic activity on the CTSs’ concentration in the preincubation media was fitted to the Hill 1 function: y=y0+ymax−y0x^n/k^n+x^n, where y—Na,K-ATPase activity; x—concentration of CTS; k—inhibition constant; n—Hill coefficient. Fitting was performed using Origin 8.1 software.

Experiment [3] has as its target T3, α1R-Na,K-ATPase from rat kidneys (Rattus norvegicus, UniProt P06685).
T3 construct: α1R-NKA from rat kidneys was transferred into the buffer by dialysis; from tissue; host or cells: rat kidney
The experiment is described as above. In kind it is biochemical. To be noted: for inhibition of α1R-NKA activity (in words): concentration up to 500 μM. Here is the method:
as §4, §5

The target of experiment [4] is T4, α1S-Na,K-ATPase from pig kidneys in E2P-conformation (Sus scrofa, UniProt P05024).
T4 construct: In contrast to α1S-NKA from pig kidneys; from tissue; host or cells: pig kidney
Format: biochemical. On the procedure:
(§6) To identify a mode of enzyme inhibition by CTSs after their binding to different enzyme conformations, we preincubated NKA in the medium containing 30 MM imidazole (pH 7.4), 3 mM MgCl2, 3 mM Pi/Tris and 1 mM EDTA (E2P-conformation). Solutions of CTSs were made using 100% DMSO with a final concentration of ouabain 100 mM and digoxin and marinobufagenin at 10 mM. Then an aliquot of the corresponding stock solution was added to the preincubation medium to obtain a final CTSs concentration.
(§7) After enzyme preincubation with different concentrations of CTSs for several minutes, the reaction was started by transferring the aliquot of the solution containing 0.25–2.5 μg of NKA from the preincubation medium into the incubation one. The concentration of CTSs was decreased by this procedure by 50–100 times. […] That time interval was equal to 10 min for E2P-conformation of pig and rat kidney enzymes. The control sample was preincubated under the same conditions with a concentration of DMSO that was added to the experimental medium with the corresponding CTS.
as §5

Experiment [5] has as its target T5, α1R-Na,K-ATPase from rat kidney in E2P-conformation (Rattus norvegicus, UniProt P06685).
T5 construct: α1R-NKA from rat kidneys was transferred into the buffer by dialysis; from tissue; host or cells: rat kidney
Format: biochemical. Here is the method: as §6, §7, §5

Experiment [6] concerns NKA from duck salt glands (α1β1-isoform), E2P-conformation. Also on record: method as in PMID 26297827. To be noted: cited from earlier work; for Kd: read-out: Kd, binding to E2P-conformation of NKA.
Experiment [7] addresses T6, α1R-Na,K-ATPase in E2P-conformation (Rattus norvegicus, UniProt P06685).
T6 construct: α1R-NKA from rat kidneys was transferred into the buffer by dialysis; from tissue; host or cells: rat kidney
The experiment in a line: biochemical. In kind it is binding. Here is the method: as §1, §2, §3

Another experiment has as its system renal epithelial cells. Also on record: method as in PMID 15494417. To be noted: ion transport by NKA inhibited by 50% at these concentrations; cited from earlier work.
[8] abbreviates: ITC, E2P-conformation, pH 7.4, 37 °C.
Setting [9] is: ITC, E2P-conformation, pH 7.4, 37 °C, calculated as Kd = 1/Ka, read-out: Kd (dissociation constant).
Setting [10] is: ITC, pH 7.4, 37 °C, ΔG = −RTlnKa.
[11] abbreviates: CTS in incubation medium, 37 °C, hyperbola fit, read-out: IC50, inhibition of α1S-NKA hydrolytic activity.
Where [12] appears, read: as restated in discussion, read-out: IC50 evaluated in our experiments.
The mark [13] stands for this setting: after preincubation with enzyme in E2P-conformation and dilution.
Where [14] appears, read: ITC, E2P-conformation, pH 7.4, 37 °C, nd = not detected.

A word on the IC50: it is the midpoint of a concentration-inhibition curve. The Kd is the free concentration of one partner at which half of the binding sites on the other are occupied at equilibrium, for simple one-to-one binding. Usually Hill coefficient stands for the slope factor of the fitted curve. On to `C[C@@H]1O[C@@H](O[C@H]2C[C@@H](O)[C@]3(CO)[C@H]4[C@H](O)C[C@]5(C)[C@@H](C6=CC(=O)OC6)CC[C@]5(O)[C@@H]4CC[C@]3(O)C2)[C@H](O)[C@H](O)[C@H]1O` [ouabain], for which the half-maximal inhibitory concentration (IC50) with NKA from pig kidneys was 900 nM; in experiment [2] (setting [11]), 2000 nM; in [2] (setting [12]), 800 nM; in experiment [3] (CTS in incubation medium, 37 °C, hyperbola fit, read-out: IC50, inhibition of rat enzyme (α1R-NKA) hydrolytic activity) it was 140000 nM. Moreover, the equilibrium dissociation constant (Kd) on NKA in E2P-conformation was 88 nM; in experiment [1] (setting [9]) it was 53 nM; in experiment [6] it was 100 nM; in experiment [7] (setting [9]), 3230 nM. Further, the results for the “Ka (association constant)” value in experiment [1] (setting [8]) and in experiment [7] (setting [14]) were 1.9e+07 M⁻¹ and 3.1 × 10^5 * M^−1, respectively. Further, the “TΔS (entropy variation)” value was -11.3 kcal/mol in experiment [1] (setting [8]) and 3.4 kcal/mol in experiment [7] (setting [8]). The “n (reaction stoichiometry)” value in [1] (setting [8]) came out at 0.7 ± 0.2; in [7] (setting [14]) it was 0.6 ± 0.1. For the same molecule, the “ΔH (enthalpy variation)” value in experiment [1] (setting [8]) was -21.6 ± 0.7 kcal/mol and -21.6 kcal/mol; in experiment [7] (setting [14]), -4.3 ± 0.7 kcal/mol and -4.3 kcal/mol. Besides, the “ΔG (Gibbs energy)” value was -10.3 kcal/mol in [1] (setting [10]) and -7.7 kcal/mol in experiment [7] (setting [10]). Besides, the Hill coefficient in experiment [4] (CTS in preincubation medium, 40 nM of the enzyme) was 1.89 ± 0.14; in experiment [4] (CTS in preincubation medium, 80 nM of the enzyme), 1.96 ± 0.19; in experiment [4] (CTS in preincubation medium, 400 nM of the enzyme), 1.91 ± 0.09. The “mode of α1S-NKA inhibition (in words)” value in [4] (setting [13]) is given as “pseudo-irreversible inhibitors”. Besides, the “mode of interaction with α1R-NKA (in words)” value in experiment [5] (after preincubation with enzyme and dilution) is listed as “reversibly; also recorded: reversible”. Moreover, in [6] (E2P-conformation), the “higher affinity of ouabain binding in comparison to marinobufagenin” value was 17 fold. Also, the “entropy component (−TΔS)” value in experiment [7] (ITC, 37 °C) was -3.4 kcal/mol. Also, in experiment [7] (ITC, α1R versus α1S), the “ouabain affinity for α1R-NKA lower than for α1S-NKA” value is listed as 60 times. Further, the “concentration inducing renal epithelial cells death” value in the experiment with renal epithelial cells is around 0.1 µM.

As for `C[C@H]1O[C@@H](O[C@H]2[C@@H](O)C[C@H](O[C@H]3[C@@H](O)C[C@H](O[C@H]4CC[C@@]5(C)[C@H](CC[C@@H]6[C@@H]5C[C@@H](O)[C@]5(C)[C@@H](C7=CC(=O)OC7)CC[C@]65O)C4)O[C@@H]3C)O[C@@H]2C)C[C@H](O)[C@@H]1O` [digoxin], in the experiment on NKA from pig kidneys, the IC50 was 1950 nM. Also, the Kd on NKA in E2P-conformation is 126 nM. In addition, the “entropy component (−TΔS)” value in [1] is -2.0 kcal/mol. Further, in experiment [1] (pH 7.4), the “TΔS (entropy variation)” value was 2.0 kcal/mol; the “n (reaction stoichiometry)” value is recorded as 0.5 ± 0.1; the “ΔG (Gibbs energy)” value is -9.9 kcal/mol; the “ΔH (enthalpy variation)” value is -7.9 ± 0.6 kcal/mol and -7.9 kcal/mol. In experiment [2] (IC50, inhibition of α1S-NKA hydrolytic activity), this molecule yielded an IC50 of 1200 nM. This molecule also returned an IC50 in experiment [2] (IC50 evaluated in our experiments) of 2000 nM. The same molecule showed an IC50 in [3] of 250000 nM. In experiment [4], the Hill coefficient was 1.90 ± 0.21 and 1.70 ± 0.33 and 1.99 ± 0.27; the “mode of α1S-NKA inhibition (in words)” value is given as “pseudo-irreversible inhibitors”. Further, the “mode of interaction with α1R-NKA (in words)” value in experiment [5] is recorded as “reversible”. Also, the “binding of α1R-NKA to CTS (in words)” value in experiment [7] is on record as “no measurable binding”.

With `C[C@]12CC[C@H](O)C[C@H]1CC[C@@H]1[C@@H]2CC[C@]2(C)[C@@H](c3ccc(=O)oc3)CC[C@]12O` [bufalin], in the experiment on NKA from pig kidneys, the IC50 was 110 nM. The Kd at NKA in E2P-conformation was 125 nM.

For the molecule `C[C@]12CC[C@H](O)C[C@@]1(O)CC[C@@H]1[C@@H]2CC[C@]2(C)[C@@H](c3ccc(=O)oc3)C[C@H]3O[C@]132` [marinobufagenin], the IC50 with NKA from pig kidneys was 1500 nM; in experiment [2] (setting [11]), 800 nM; in experiment [2] (setting [12]), 1200 nM. The “entropy component (−TΔS)” value in [1] (ITC, 37 °C) was -2.8 kcal/mol. For the same molecule, in [1] (ITC, E2P-conformation, 37 °C), the “affinity of α1S-NKA for marinobufagenin lower than that for digoxin” value is around 11 times. Also, the “affinity of α1S-NKA for marinobufagenin lower than that for ouabain” value in experiment [1] (ITC, E2P-conformation, 37 °C) is listed as “about 44 times”. Besides, the “Ka (association constant)” value in experiment [1] (setting [8]) is reported as 4.3 × 10^5 * M^−1. Moreover, the “TΔS (entropy variation)” value in [1] (setting [8]) worked out at 2.8 kcal/mol. Besides, the “n (reaction stoichiometry)” value in experiment [1] (setting [8]) was found to be 1.7 ± 0.2. Further, the “ΔH (enthalpy variation)” value in experiment [1] (setting [8]) was -5.2 ± 0.3 kcal/mol; in experiment [1] (ITC, E2P-conformation, pH 7.4, 37 °C, listed as MBG) it was -5.2 kcal/mol. In addition, the Kd in [1] (setting [9]) was 2320 nM; in experiment [1] (ITC, Table 1 value as quoted in discussion, read-out: Kd for binding to E2P-conformation) it was 2300 nM; in [6], 1700 nM. In addition, the “ΔG (Gibbs energy)” value in experiment [1] (setting [10]) was -7.9 kcal/mol. Moreover, the “inhibition of α1R-NKA activity (in words)” value in experiment [3] is “does not inhibit this isoform at all”; in experiment [3] (listed as Marinobufagenin), “does not inhibit”. Further, in [4] (setting [13]), the “mode of α1S-NKA inhibition (in words)” value was “reversible inhibitor; also recorded: reversibly”. Further, in [7] (ITC, association constants below 2 × 10^4 M^−1 cannot be measured), the “binding of α1R-NKA to CTS (in words)” value is “no measurable binding”. Besides, the “concentration inducing renal epithelial cells death” value in the experiment with renal epithelial cells is on record as “about 1 μM”.
